From ChEMBL document CHEMBL3507680, “University of Dundee, Gates Library screen for HepG2 cell viability”

Assay: Human HepG2 cell viability assay in 384 well format
Assay type: toxicity, cell-based
Parameters: dose 125 nL, time 70.5 hour; cytotoxicity at 70.5 h: concentration not given beside the values
Conditions: HepG2 cells, read-out: Inhibition

NC(=O)c1ccc(-n2ccnc2-c2cccc(O)c2)cc1N1CCCC1
cytotoxicity at 70.5 h: -6.04%

N[C@H]1CN(C(=O)c2ccc(Cl)cc2F)C[C@@H]1C1CC1
cytotoxicity at 70.5 h: -4.7%

CCc1nc(C)c(C(=O)N2C[C@@H](C(=O)O)[C@H](C3CC3)C2)s1
cytotoxicity at 70.5 h: -4.51%

CCOC(=O)c1n[nH]cc1CN1CCCC(N(C)Cc2ccccc2)C1 (centres undefined)
cytotoxicity at 70.5 h: 2.53%

CCN(Cc1ccncc1)C1CCCN(Cc2ccc(F)cc2Cl)C1 (centres undefined)
cytotoxicity at 70.5 h: 1.69%

c1c[nH]c(-c2cn(CCSc3cnn[nH]3)nn2)n1
cytotoxicity at 70.5 h: -11.9%

CCc1nc(N2CCCC(CCOC)(C(=O)O)C2)ncc1C (centres undefined)
cytotoxicity at 70.5 h: -4.01%

Cc1cc(C)n(C2CCN(C(=O)c3cn4ccsc4n3)C2)n1 (centres undefined)
cytotoxicity at 70.5 h: -7.56%

Cc1cc(C2CCC2)nc(NCCC23CCCN2CCC3)n1
cytotoxicity at 70.5 h: -8.73%

O=C1CCC2(CCCN(C(=O)c3ccoc3)C2)CN1Cc1ccncc1 (centres undefined)
cytotoxicity at 70.5 h: -16.8%

O=C(c1ccnc(N2CCOC(C(F)(F)F)C2)c1)N1CCOCC1 (centres undefined)
cytotoxicity at 70.5 h: -19.7%

CC(C)c1nnc2sc(CC3CN(Cc4ccccc4)CCO3)nn12 (centres undefined)
cytotoxicity at 70.5 h: 6.69%

CC(C)[C@H]1COC(=O)N1CC(=O)N(C)CCCn1cccn1
cytotoxicity at 70.5 h: -4.67%

Cc1cc(-c2nn(C)c(Cl)c2CN2CCCCC(N)C2)no1 (centres undefined)
cytotoxicity at 70.5 h: -1.48%

CN1CCN(C(=O)NCCc2ccc(F)cc2)[C@H]2CS(=O)(=O)C[C@H]21
cytotoxicity at 70.5 h: -2.69%

CN(Cc1csc(-c2ccccc2)n1)C(=O)CCn1ccccc1=O
cytotoxicity at 70.5 h: -0.921%

CSCc1noc(CN2CC3(CCCC3)CC2=O)n1
cytotoxicity at 70.5 h: -7.21%

CCc1nc(N2CCCC(O)(CO)CC2)ncc1C (centres undefined)
cytotoxicity at 70.5 h: -0.208%

CN1CCCN(C(=O)c2cnc(Cc3c(Cl)cccc3Cl)nc2O)CC1
cytotoxicity at 70.5 h: -3.04%

CC1(C)CCN(Cc2ccccc2-c2nc(C(C)(C)C)cc(=O)[nH]2)C1
cytotoxicity at 70.5 h: -4.72%

Cc1ccc(C(=O)N2CCC(=O)N(CC3CC3)C(C(C)C)C2)c(=O)[nH]1 (centres undefined)
cytotoxicity at 70.5 h: 4.74%

CCN1CC2(CCN(C(=O)C(C)Oc3ccc(F)cc3F)CC2)OC1=O (centres undefined)
cytotoxicity at 70.5 h: -1.13%

Cc1cnc(NC(=O)c2cccc(CN(C)Cc3snnc3C)c2)s1
cytotoxicity at 70.5 h: -4.01%

CC(c1ccon1)N(C)C(=O)C1CCN(C2CCCCC2)CC1 (centres undefined)
cytotoxicity at 70.5 h: -1.12%

Cc1ccccc1-n1cc(CN(C)C(=O)CC2C(=O)NCCN2C)cn1 (centres undefined)
cytotoxicity at 70.5 h: -2.44%

CN(CCCN1CCCCCC1)C(=O)c1ccccc1NCC(=O)O
cytotoxicity at 70.5 h: -12.7%

O=C(CN1CCOC1=O)N1CC[C@@H](c2ccc3ccccc3c2)[C@H](O)C1
cytotoxicity at 70.5 h: -9.33%

Cc1ccc(CN(Cc2ccccn2)C(=O)CCC2CCCN(C)C2)s1 (centres undefined)
cytotoxicity at 70.5 h: 32.1%

CC(C)(C)c1cc(CN2CCOCC(O)C2)n[nH]1 (centres undefined)
cytotoxicity at 70.5 h: 2.49%

c1cc(CN2CCC(c3nnc4n3CCCCC4)CC2)c2c(c1)OCO2
cytotoxicity at 70.5 h: -5.9%

c1cncc(CN2CCCC(Nc3ncnc4c3CCNCC4)C2)c1 (centres undefined)
cytotoxicity at 70.5 h: -11.7%

Cc1cc(N2C[C@H](C3CC3)[C@@H](N)C2)nc(N2CCCCC2)n1
cytotoxicity at 70.5 h: 3.53%

COc1ccc(CN2CCC3(CC2)C(C(=O)O)CC(=O)N3C)cc1Cl (centres undefined)
cytotoxicity at 70.5 h: -3.23%

C[C@@H]1CN(C(=O)Cn2ccc3ncccc3c2=O)C[C@H](C)O1
cytotoxicity at 70.5 h: -5.8%

CCC[C@H]1CN(S(=O)(=O)c2cc(C)ccc2F)C[C@@H]1N
cytotoxicity at 70.5 h: -0.888%

Cc1nccc(N[C@H]2CN(CCS(C)(=O)=O)C[C@@H]2C2CC2)n1
cytotoxicity at 70.5 h: 18.1%

CN1CC(C(=O)N2CCN(c3cccc(Cl)c3)C(=O)C2)NC1=O (centres undefined)
cytotoxicity at 70.5 h: -7.63%

COCCn1cnnc1Cn1ccnc1-c1ccsc1
cytotoxicity at 70.5 h: 1.35%

COc1ccccc1-n1nc(C(C)C)nc1Cc1nnc(N)s1
cytotoxicity at 70.5 h: -12.4%

COc1cc(-c2cccc3c2OC(CN)C3)ccc1O (centres undefined)
cytotoxicity at 70.5 h: 14.1%

CSCCCNc1nccc(-c2cc(C(=O)O)ccn2)n1
cytotoxicity at 70.5 h: -7.43%

COC(=O)N1C[C@H]2CC[C@@H]1CN(Cc1ccncc1)C2
cytotoxicity at 70.5 h: -14.2%

O=C(O)C1(Oc2cccc(F)c2)CCN(C2CCOCC2)CC1
cytotoxicity at 70.5 h: -6.65%

COc1cc(CN2CC(=O)N(c3ccc(C)cc3)CC2C)cc(OC)c1 (centres undefined)
cytotoxicity at 70.5 h: -12%
